In US20220169680A1 (priority 2018, published 2022):

Key:
Type in all cases: cell-based
A549 cells [1] = tested on: A549 cells
HeLa cells = tested on: HeLa cells
MRCS cells = tested on: MRCS cells
293T cells = tested on: 293T cells
A549 cells [2] = tested on: A549 cells; remark: listed apart in the source
[3] = tested on: 293T cell, HUVEC cell, HCT-116 cell, MKN-45 cell, MRCS cell, U397 cell and ESF-1 cell
A549 cells [4] = tested on: A549 cells; remark: listed apart in the source
A549 cells [5] = tested on: A549 cells; remark: listed apart in the source
A549 cells [6] = tested on: A549 cells; remark: listed apart in the source

CIYRRLKYGLKRGPSTEG [Jilin-2004(H5N1)-M2-50-67]
cell entry (A549 cells [1]): entered A549 cells | cell entry at lower concentrations (A549 cells [1]): could still enter A549 cells | cell penetration properties (HeLa cells): consistent with the results obtained using A549 cells | cell penetration properties (MRCS cells): consistent with the results obtained using A549 cells

DRFFFKRIFRRFKFRLKRRPST [Jilin-2004(H5N1)-M2-44-65 mut12]
cell-penetrating peptide function compared with the parent polypeptide (A549 cells [1]): stronger than that of the parent Jilin-2004(H5N1)-M2-44-65 polypeptide | cell-penetrating peptide function compared with the parent polypeptide (MRCS cells): stronger than that of the parent Jilin-2004(H5N1)-M2-44-65 polypeptide | cell-penetrating peptide function compared with the parent polypeptide (293T cells): stronger than that of the parent Jilin-2004(H5N1)-M2-44-65 polypeptide

DRFFFKRIYRRLKYRLKRRPKV [Jilin-2004(H5N1)-M2-44-65 mut9]
cell-penetrating peptide function compared with the parent polypeptide (A549 cells [1]): stronger than that of the parent Jilin-2004(H5N1)-M2-44-65 polypeptide | cell-penetrating peptide function compared with the parent polypeptide (MRCS cells): stronger than that of the parent Jilin-2004(H5N1)-M2-44-65 polypeptide | cell-penetrating peptide function compared with the parent polypeptide (293T cells): stronger than that of the parent Jilin-2004(H5N1)-M2-44-65 polypeptide

DRFFFKRIYRRLKYRLKRRPST [Jilin-2004(H5N1)-M2-44-65 mut8]
cell-penetrating peptide function compared with the parent polypeptide (A549 cells [1]): stronger than that of the parent Jilin-2004(H5N1)-M2-44-65 polypeptide | cell-penetrating peptide function compared with the parent polypeptide (MRCS cells): stronger than that of the parent Jilin-2004(H5N1)-M2-44-65 polypeptide | cell-penetrating peptide function compared with the parent polypeptide (293T cells): stronger than that of the parent Jilin-2004(H5N1)-M2-44-65 polypeptide | ability to carry small RNA compared with the other two polypeptides tested (A549 cells [2]): even stronger | carrying Cy3-labeled small RNA into cells (A549 cells [2]): can carry small RNA into cells | effect compared with transfection reagent RNAiMax (A549 cells [2]): stronger than that of the transfection reagent RNAiMax

DRLFFKCIYRRLKYGLKRGPST [Jilin-2004(H5N1)-M2-44-65]
cell entry effect compared with existing cell-penetrating peptides (Table 4) (A549 cells [1]): significantly better cell entry effects than existing cell-penetrating peptides | cell-penetrating peptide function compared with positive control TAT (A549 cells [1]): stronger cell-penetrating peptide functions than that of the positive control TAT | entry effect compared with other C-terminally truncated polypeptides (A549 cells [1]): even better entry effects than other polypeptides | cell-penetrating peptide function compared with positive control TAT (MRCS cells): stronger than that of the positive control TAT | cell-penetrating peptide function compared with positive control TAT (293T cells): stronger than that of the positive control TAT | entry effect compared with other fragments in different cell lines [3]: even better entry effects | carrying Cy3-labeled small RNA into cells (A549 cells [2]): can carry small RNA into cells | effect compared with transfection reagent RNAiMax (A549 cells [2]): stronger than that of the transfection reagent RNAiMax | carrying Cy3-labeled small RNA into cells (super high resolution microscope) (A549 cells [4]): can carry Cy3-labeled small RNA into A549 cells | effect compared with RNAiMax or TAT (super high resolution microscope) (A549 cells [4]): stronger than that of the transfection reagent RNAiMax or of TAT | ability to carry small RNA into cells compared with the transfection reagent RNAiMax group, qPCR (A549 cells [5]): stronger than the transfection reagent RNAiMax group | ability to carry small RNA into cells, qPCR (A549 cells [5]): all had the ability to carry small RNA into cells

DRLFFKCIYRRLKYGLKRRPST [Jilin-2004(H5N1)-M2-44-65 mut25]
cell-penetrating peptide function compared with the parent polypeptide (A549 cells [1]): stronger than that of the parent Jilin-2004(H5N1)-M2-44-65 polypeptide | cell-penetrating peptide function compared with the parent polypeptide (MRCS cells): stronger than that of the parent Jilin-2004(H5N1)-M2-44-65 polypeptide | cell-penetrating peptide function compared with the parent polypeptide (293T cells): stronger than that of the parent Jilin-2004(H5N1)-M2-44-65 polypeptide

DRLFFKCIYRRLKYRLKRRPST [Jilin-2004(H5N1)-M2-44-65 mut26]
cell-penetrating peptide function compared with the parent polypeptide (A549 cells [1]): stronger than that of the parent Jilin-2004(H5N1)-M2-44-65 polypeptide | cell-penetrating peptide function compared with the parent polypeptide (293T cells): stronger than that of the parent Jilin-2004(H5N1)-M2-44-65 polypeptide | ability to carry small RNA into cells compared with the transfection reagent RNAiMax group, qPCR (A549 cells [5]): stronger than the transfection reagent RNAiMax group

DRLFFKRIYRRLKYRLKRRPST [Jilin-2004(H5N1)-M2-44-65 mut27]
cell-penetrating peptide function compared with the parent polypeptide (293T cells): stronger than that of the parent Jilin-2004(H5N1)-M2-44-65 polypeptide | ability to carry small RNA into cells compared with the transfection reagent RNAiMax group, qPCR (A549 cells [5]): stronger than the transfection reagent RNAiMax group

FFKCIYRRLKYGLKRGPS [Jilin-2004(H5N1)-M2-47-64]
cell entry (A549 cells [1]): entered A549 cells | cell entry at lower concentrations (A549 cells [1]): could still enter A549 cells | cell entry effect compared with TAT positive control (A549 cells [1]): stronger than that of the TAT polypeptide | cell penetration properties (HeLa cells): consistent with the results obtained using A549 cells | cell penetration properties (MRCS cells): consistent with the results obtained using A549 cells

RFFFRRFFRRFRFRFRRR [Jilin-2004(H5N1)-M2-45-62 mut13]
cell-penetrating peptide function compared with the parent polypeptide (confocal imaging) (A549 cells [6]): stronger than that of the parent Jilin-2004(H5N1)-M2-45-62 polypeptide

RLFFKCAYRRLKYGLKRG [Jilin-2004(H5N1)-M2-45-62 mut51]
cell-penetrating peptide function compared with the parent polypeptide (confocal imaging) (A549 cells [6]): stronger than that of the parent Jilin-2004(H5N1)-M2-45-62 polypeptide | ability to carry small RNA into cells compared with the transfection reagent RNAiMax group, qPCR (A549 cells [5]): stronger than the transfection reagent RNAiMax group

RLFFKCIYRRLKYGLKRG [A/HongKong/97/98(H5N1)-M2-N-M-AH(45-62)]
cell entry of rhodamine-labeled polypeptide (A549 cells [6]): could all enter A549 cells

RLFFKCIYRRLKYGLKTG [Jilin-2004(H5N1)-M2-45-62 mut61]
cell-penetrating peptide function compared with the parent polypeptide (confocal imaging) (A549 cells [6]): stronger than that of the parent Jilin-2004(H5N1)-M2-45-62 polypeptide | ability to carry small RNA into cells compared with the transfection reagent RNAiMax group, qPCR (A549 cells [5]): stronger than the transfection reagent RNAiMax group

RLFFKIIYRRLKYGLKRG [Jilin-2004(H5N1)-M2-45-62 mut50]
cell-penetrating peptide function compared with the parent polypeptide (confocal imaging) (A549 cells [6]): stronger than that of the parent Jilin-2004(H5N1)-M2-45-62 polypeptide

RLFFRRIYRRLKYGLKRG [Jilin-2004(H5N1)-M2-45-62 mut2]
cell-penetrating peptide function compared with the parent polypeptide (confocal imaging) (A549 cells [6]): stronger than that of the parent Jilin-2004(H5N1)-M2-45-62 polypeptide

RLFFRRIYRRLRYGLKRG [Jilin-2004(H5N1)-M2-45-62 mut3]
cell-penetrating peptide function compared with the parent polypeptide (confocal imaging) (A549 cells [6]): stronger than that of the parent Jilin-2004(H5N1)-M2-45-62 polypeptide

RLFFRRIYRRLRYRLKRG [Jilin-2004(H5N1)-M2-45-62 mut4]
cell-penetrating peptide function compared with the parent polypeptide (confocal imaging) (A549 cells [6]): stronger than that of the parent Jilin-2004(H5N1)-M2-45-62 polypeptide

RLFFRRIYRRLRYRLRRG [Jilin-2004(H5N1)-M2-45-62 mut5]
cell-penetrating peptide function compared with the parent polypeptide (confocal imaging) (A549 cells [6]): stronger than that of the parent Jilin-2004(H5N1)-M2-45-62 polypeptide | ability to carry small RNA into cells compared with the transfection reagent RNAiMax group, qPCR (A549 cells [5]): stronger than the transfection reagent RNAiMax group

RLFFRRIYRRLRYRLRRR [Jilin-2004(H5N1)-M2-45-62 mut6]
cell-penetrating peptide function compared with the parent polypeptide (confocal imaging) (A549 cells [6]): stronger than that of the parent Jilin-2004(H5N1)-M2-45-62 polypeptide

RLFIKCIYRRLKYGLKRG [Jilin-2004(H5N1)-M2-45-62 mut48]
cell-penetrating peptide function compared with the parent polypeptide (confocal imaging) (A549 cells [6]): stronger than that of the parent Jilin-2004(H5N1)-M2-45-62 polypeptide | ability to carry small RNA into cells compared with the transfection reagent RNAiMax group, qPCR (A549 cells [5]): stronger than the transfection reagent RNAiMax group

RLFSKSIYR1FKHGLKRG [Caledonia/20/1999(H1N1)-M2-N-M-AH(45-62)]
cell entry of rhodamine-labeled polypeptide (A549 cells [6]): could all enter A549 cells

RRFFFKCIYRRLKYGLKRGPST [Jilin-2004(H5N1)-M2-44-65 mut17]
cell-penetrating peptide function compared with the parent polypeptide (293T cells): stronger than that of the parent Jilin-2004(H5N1)-M2-44-65 polypeptide | ability to carry small RNA into cells compared with the transfection reagent RNAiMax group, qPCR (A549 cells [5]): stronger than the transfection reagent RNAiMax group

SLFFKCIYRRLKYGLKRG [Jilin-2004(H5N1)-M2-45-62 mut45]
cell-penetrating peptide function compared with the parent polypeptide (confocal imaging) (A549 cells [6]): stronger than that of the parent Jilin-2004(H5N1)-M2-45-62 polypeptide | ability to carry small RNA into cells compared with the transfection reagent RNAiMax group, qPCR (A549 cells [5]): stronger than the transfection reagent RNAiMax group
